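Cultured in 96-well plates, cells were exposed to test compound for 48 hours across five concentrations. GI50 = concentration required for 50% inhibition of growth.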 Active and inactive are the calls of the source. Cut-off read from the data, not from the text of the source: active = GI50 up to about 1.1 µM and inactive = higher.
Legend:
Assay in all cases: NCI tumour cell line growth inhibition, 48 h
[1] = tested on: SK-OV-3
[2] = tested on: T47D
[3] = tested on: HL-60
[4] = tested on: RXF 393
[5] = tested on: OVCAR-4
[6] = tested on: SF-539
[7] = tested on: SF-295
[8] = tested on: K562
[9] = tested on: CAKI-1
[10] = tested on: SF-268
[11] = tested on: PC-3
[12] = tested on: M14
[13] = tested on: Malme-3M
[14] = tested on: A549
[15] = tested on: HT-29
[16] = tested on: OVCAR-8
[17] = tested on: IGROV-1
[18] = tested on: SNB-75
[19] = tested on: HOP-92

Measured: GI50

Nc1ncnc2nc(N3CCN(CCO)CC3)[nH]c12
inactive: [1] > 100 µM | [2] > 100 µM | [3] > 100 µM | [4] > 100 µM | [5] > 100 µM | [6] > 100 µM | [7] > 100 µM | [8] > 100 µM | [9] > 100 µM | [10] > 100 µM | [11] > 100 µM | [12] > 100 µM | [13] > 100 µM | [14] > 100 µM | [15] > 100 µM | [16] > 100 µM | [17] > 100 µM

CCn1c(SCC(=O)NNC(=S)Nc2ccc(F)cc2)nc2ccccc2c1=O
inactive: [1] > 100 µM | [2] 57.7 µM | [3] > 100 µM | [4] > 100 µM | [5] 63 µM | [6] > 100 µM | [7] > 100 µM | [8] 74.5 µM | [10] 79.8 µM | [11] 66.1 µM | [12] > 100 µM | [13] > 100 µM | [14] > 100 µM | [15] > 100 µM | [18] > 100 µM | [16] > 100 µM | [17] > 100 µM

O=C1c2cc(Cl)ccc2N=C(NCCCl)C2CSCN12 (stereo not given)
inactive: [1] > 100 µM | [2] > 100 µM | [4] > 100 µM | [5] > 100 µM | [7] > 100 µM | [8] 70.1 µM | [9] > 100 µM | [10] > 100 µM | [11] > 100 µM | [12] > 100 µM | [13] > 100 µM | [14] > 100 µM | [15] > 100 µM | [16] > 100 µM | [17] > 100 µM

CC1=NOC2(C1)C(=O)Nc1ccccc12 (stereo not given)
inactive: [1] > 100 µM | [2] > 100 µM | [3] > 100 µM | [4] > 100 µM | [5] > 100 µM | [6] > 100 µM | [7] > 100 µM | [8] > 100 µM | [9] 30.3 µM | [10] > 100 µM | [11] > 100 µM | [12] > 100 µM | [13] > 100 µM | [14] > 100 µM | [15] > 100 µM | [18] 66.2 µM | [16] > 100 µM | [17] > 100 µM

COc1ccc(-c2c(C#N)c(O)n(NS(=O)(=O)c3ccc(C)cc3)c(=O)c2C#N)cc1
inactive: [1] > 100 µM | [19] 4.71 µM | [3] 37.1 µM | [4] 66.5 µM | [5] 81.5 µM | [6] 67.8 µM | [7] 75 µM | [9] > 100 µM | [10] > 100 µM | [11] 71.4 µM | [12] > 100 µM | [13] 70.6 µM | [14] 91.8 µM | [15] > 100 µM | [18] > 100 µM | [16] 70 µM | [17] 35.8 µM

COC(=O)C1=C(OC(=O)/C(=C/c2ccccc2)c2ccccc2)C(C(=O)OC)[C@@]2(O)[C@@H](C(=O)OC)[C@H](C)C[C@@H]1[C@@H]2C(=O)OC (stereo not given in full)
inactive: [1] > 100 µM | [2] > 100 µM | [3] > 100 µM | [4] 66.2 µM | [5] > 100 µM | [6] > 100 µM | [7] 69.7 µM | [8] 6.11 µM | [9] > 100 µM | [10] > 100 µM | [11] > 100 µM | [12] > 100 µM | [13] > 100 µM | [14] > 100 µM | [15] > 100 µM | [18] > 100 µM | [16] > 100 µM | [17] > 100 µM

O=C1/C(=C\c2cccc(Oc3ccccc3)c2)SC(c2ccccc2)N1c1ccccc1Cl (stereo not given)
inactive: [1] 25.4 µM | [2] 27.7 µM | [19] 14.6 µM | [3] 30.2 µM | [4] 20.8 µM | [5] 37.1 µM | [6] 19.1 µM | [7] 33.8 µM | [8] 23 µM | [9] 34 µM | [10] 33 µM | [12] 30.8 µM | [13] 33.6 µM | [14] 37.5 µM | [15] 19.7 µM | [16] 21.9 µM

O=C(NCCCCN(CCCNC(=O)C(F)(F)F)Cc1ccc2ccccc2c1)C(F)(F)F
inactive: [1] 23 µM | [2] 17.7 µM | [19] 16.7 µM | [3] 65.2 µM | [4] 17.5 µM | [5] 17.6 µM | [6] 16.3 µM | [7] 16.7 µM | [8] 16.7 µM | [9] 14.3 µM | [10] 16 µM | [12] 16.7 µM | [13] 15.3 µM | [14] 30.4 µM | [15] 13.7 µM | [18] 11.5 µM | [16] 16.9 µM | [17] 17.2 µM

O=C(N/N=C/c1ccc(Br)cc1)N/N=C/c1ccc(Br)cc1
inactive: [1] 2.43 µM | [2] 4.38 µM | [3] 13.2 µM | [4] 13.3 µM | [5] 2.37 µM | [7] 6.19 µM | [8] 16.6 µM | [9] 4.66 µM | [10] 10.4 µM | [11] 17.3 µM | [12] 11.1 µM | [13] 3.05 µM | [14] 16 µM | [15] 11.4 µM | [16] 5.08 µM | [17] 4.72 µM

CCN(CC(COc1ccc2c(c1)[n+]([O-])nc(N)[n+]2[O-])OC(C)=O)C(C)=O (stereo not given)
inactive: [1] 15.2 µM | [2] 33.9 µM | [3] 80.4 µM | [5] 50.5 µM | [6] > 100 µM | [7] > 100 µM | [8] 14.1 µM | [9] > 100 µM | [10] 56 µM | [11] 76.9 µM | [12] 89.3 µM | [14] 68.2 µM | [15] > 100 µM | [18] 35.8 µM | [16] 42.1 µM | [17] 29.1 µM

CC(C)(C)OC(=O)C1CC[C@@H](CC(=O)Oc2ccc([N+](=O)[O-])cc2)N1 (stereo not given in full)
inactive: [1] > 100 µM | [19] > 100 µM | [3] > 100 µM | [4] > 100 µM | [5] > 100 µM | [6] > 100 µM | [7] > 100 µM | [9] > 100 µM | [11] > 100 µM | [12] > 100 µM | [13] > 100 µM | [14] > 100 µM | [18] > 100 µM | [16] > 100 µM | [17] > 100 µM

Cc1ncc([N+](=O)[O-])n1CCN(C)CCCCn1ccnc1[N+](=O)[O-]
inactive: [1] > 100 µM | [2] > 100 µM | [3] > 100 µM | [4] > 100 µM | [5] > 100 µM | [6] > 100 µM | [7] > 100 µM | [8] > 100 µM | [9] > 100 µM | [10] > 100 µM | [11] > 100 µM | [12] > 100 µM | [13] > 100 µM | [14] > 100 µM | [15] > 100 µM | [18] > 100 µM | [16] > 100 µM
